US11124515B2, “Adenosine receptor antagonists and uses thereof” (Teon Therapeutics, Inc., priority 2018, dated 2021)

Assay: Pharmacokinetic study in Sprague Dawley rats, single oral dose, plasma LC/MS/MS
Assay type: in vivo
Settings: suspension in 0.5% methylcellulose in water
Procedure: Pharmacokinetic studies were carried out in Sprague Dawley rats. Exemplary compounds were administered orally by gavage to groups of three rats using a single oral dose of 5 mg/kg. Each oral dose was prepared as a suspension in 0.5% methylcellulose in water. Blood samples were obtained serially from each rat at 0, 15, 30 min, and then 1, 2, 4, 8, and 24 hrs post dose.
Concentrations of an administered compound and the corresponding metabolite (Compound 1) in rat plasma were determined by a HPLC tandem mass spectrometric (LC/MS/MS) method. 50 μL Plasma PPT by ISTD in MeOH/Acetonitrile (1:1, v/v). 200 μL of 5 ng/mL Terfenadine and Buspirone was added to in MeOH/Acetonitrile (1:1, v/v) and mixed well. […]
Quantification of compounds were achieved by mass spectrometry using Multiple Reaction Monitoring (MRM) mode, monitoring the transitions specific to each exemplary compound and 447.34>405.20 for Compound 1. The quantification limit of the assay was 10 ng/mL for Compound 1.
Non-compartmental pharmacokinetic parameters were determined using a commercial program WinNonLin Professional, Version 8.0 (Pharsight, Mountain View, Calif.). […]
For oral administration, t½ (hr), tmax (hr), Cmax (ng/mL), AUClast (hr*ng/mL), AUCInf (hr*ng/mL), AUC Extr (%), MRTInf (hr), Cmax Ratio (Parent/Pro), AUClast Ratio (Parent/Pro) were determined.

Row | SMILES | AUC (AUClast) (compounds of Formula (B), single oral dose of 5 mg/kg) | AUC(0-t) (rat, Compound 1, single oral dose of 5 mg/kg, read-out: AUC (AUClast)) [ng·h/mL]
1 | CCCC(=O)OCn1c(-c2cnn(Cc3cccc(C(F)(F)F)c3)c2)nc2c1c(=O)n(CCC)c(=O)n2CC [Compound E, (3-ethyl-2,6-dioxo-1-propyl-8-(1-(3-(trifluoromethyl)benzyl)-1H-pyrazol-4-yl)-1,2,3,6-tetrahydro-7H-purin-7-yl)methyl butyrate] | α or β | –
2 | CCCn1c(=O)c2[nH]c(-c3cnn(Cc4cccc(C(F)(F)F)c4)c3)nc2n(CC)c1=O [Compound 1, 8-(1-(3-(Trifluoromethyl)benzyl)-1H-pyrazol-4-yl)-3-ethyl-1-propyl-1H-purine-2,6(3H,7H)-dione] | – | < 30000
